According to patent publication US11896032B2, “Agent for improving feed conversion rate, agent for improving survival rate, agent for improving the number of eggs laid by egg-laying hen, and method of giving same to animals, and feed” (Tsubakisangyo Co., Ltd., priority 2016, dated 2024):
Where “and” joins values, the source holds several entries; their conditions need not be identical. Identical values can stand only once.

Key:
chickens for meat = conditions: 1% glycine in feed; cited from earlier work
egg-laying hens [1] = assay: First test: aqueous solution of acetylcysteine given to egg-laying hens as drinking water; assay type: in vivo, chicken (Julia Light in test zone, Julia in control zone)
Procedure: The first test was performed by giving an aqueous solution of acetylcysteine to egg-laying hens as drinking water.
Adult egg-laying hens were selected as the target animal for the test because data is readily collected. The point of time when the test was started was at off-peak times in egg laying.
Two breeds Julia and Julia Light were used.
For this reason, in the main test, Julia having a low feed conversion rate (high profitability) was raised in the control zone and Julia Light having a high feed conversion rate (low profitability) was raised in the test zone.
The number of hens in the test zone was 33412 Julia Light hens and that in the control zone was also 33412 Julia hens.
The test zone and the control zone were placed in Akagiyama Farm run by Takai Poultry Farm Y.K., where chickens are actually raised, to perform the test in an actual situation.
A windowless house was used because differences between individuals and differences in heath conditions are small.
The house was provided with a cage having a width of 380 mm, a length of 500 mm, and a height of 380 mm.
To avoid application of heat stress to the target chickens for the test, the test was performed for 166 days from October 21, Heisei 27 to April 3, Heisei 28. At a temperature inside the house of more than 27° C., the feed demand (feed intake) of the chickens will reduce due to heat stress.
A Kumiai Blend Feed “Akagikougen 17 Up for adult chicken” shown in FIG. 1 was given from October 21, Heisei 27 to February 13, Heisei 28, and a Kumiai Blend Feed “Akagikougen 16 Up for adult chicken” shown in FIG. 2 was given from February 23 to April 3, Heisei 28.
As the agent for improving a feed conversion rate, the agent for improving a survival rate, or the agent for improving the number of eggs laid by an egg-laying hen, an aqueous solution of acetylcysteine was given to Julia Light in the test zone as drinking water through the nipples disposed at both ends of the ceiling of the cage.
The concentration of acetylcysteine in drinking water was prepared such that 1 mg/day/Kg acetylcysteine was given to the egg-laying hens. Specifically, 3.3 L per day of a stock solution having an acetylcysteine concentration of 10% was used for 33412 Julia Light hens having a weight of about 2 Kg.
The frequency to give the agent for improving a feed conversion rate, the agent for improving a survival rate, or the agent for improving the number of eggs laid by an egg-laying hen was one time for 5 days.
Water not containing agent for improving a feed conversion rate, the agent for improving a survival rate, or the agent for improving the number of eggs laid by an egg-laying hen was given to Julia in the control zone through the nipple.
The lower columns in FIG. 3 show the difference in the number of deaths, the difference in the number of eggs laid, the average feed demand, the average egg production rate, and the average egg weight between the target chickens for the test and the control during the test period.
A smaller number of deaths and cullings of the target chickens for the test are preferred. A larger number of eggs laid are preferred. A smaller feed demand (feed intake) is preferred although it should be balanced with the egg production rate and the egg weight. A larger egg production rate is preferred. A larger egg weight and a larger average egg weight are preferred. The feed conversion rate of the target egg-laying hen for the test is calculated as a ratio of the total weight of eggs laid to the feed demand as described above. The feed demand is calculated as a product of the feed intake, the number of birds, and the survival rate. The total weight of eggs laid is calculated as a product of the number of birds, the egg production rate, and the average egg weight.
The feed conversion rate of the target egg-laying hen for the test is represented by a ratio of the amount of feed given to the total weight of eggs laid as described above. […]

egg-laying hens [2] = assay: Second test: feed with powdery acetylcysteine added given to egg-laying hens; assay type: in vivo, chicken (Julia Light); conditions: for egg production rate: 28 days, 42- to 46-week old hens
Procedure: The second test was performed by giving a feed, to which powdery acetylcysteine was added, to egg-laying hens.
120 individuals having an egg production rate of 82% or more 4 weeks before the start of the preparative raising were selected from Julia Light birds (281-day old when partitioned) which were being raised in the scientific feed research center of Japan Scientific Feeds Association to be fed.
Three zones were set: a control zone where a basic feed not having acetylcysteine added thereto was given, a first test zone (standard zone) where a feed comprising a basic feed to which 0.0014% acetylcysteine was added was given, and a second test zone (5-fold zone) where a feed comprising a basic feed to which 0.0072% acetylcysteine was added was given.
Four groups were assigned to each zone, and the basic feed was given for 14 days to accustom the tested hens to the test environment. After that, the feed corresponding to each zone was given for 4 weeks.
Also in the second test, a standard daily intake of acetylcysteine per bird is planned to be 1 mg per weight (Kg) of a tested hen. In the main test, from the weight at the start of preparative raising and the feed intake one week after the start of preparative raising, assuming that the weight of a tested hen was 1580 g and a daily feed intake per bird was 140 g, the amount of acetylcysteine to be added to the basic feed was set from the following expression: standard zone: amount (%) of acetylcysteine to be added to the basic feed=weight (1580 g)×acetylcysteine intake (1 mg/weight (Kg))/feed intake (114 g/day/bird)×100 5-fold zone: amount (%) of acetylcysteine to be added to the basic feed=weight (1580 g)×acetylcysteine intake (5 mg/weight (Kg))/feed intake (114 g/day/bird)×100 <Management of Raising>
The tested hens were individually managed in a terraced individual cage for egg-laying hens disposed in an open chicken house. A set of 10 continuous cages was used for each group, and a single empty cage was disposed between the zones. The feed and drinking water were continuously given. The light beams were controlled such that the bright period was 14 hours and the dark period was 10 hours.
A variation in weight, the average egg weight, the daily egg production amount, the feed intake, and the feed efficiency were subjected to analysis of variance by a method of one-way analysis of variance using the given feed as a factor, and the superiority in each interval was examined. The egg production rate was subjected to arcsine transformation, and the superiority of the difference between intervals was similarly examined. The culling hens were excluded from the average back to the start of the test, and the results of egg production and the like were summarized. The egg production rate during the test period was subjected to rejection test, and the individuals whose egg production rate was determined as abnormal were also excluded from the average back to the start of the test.
The scientific feed research center of Japan Scientific Feeds Association (821 Yoshikura, Naritashi, Chiba)
The test was performed for 42 days from September 21 to November 2, Heisei 28. The 14 days from September 21 to October 5, Heisei 28 was the preparative test period, and the 28 days from October 6 to November 2, Heisei 28 was the main test period.

[3] = tested on: chickens for meat (broilers); assay: Third test: feed with powdery acetylcysteine added given to chickens for meat (broilers); assay type: in vivo, chicken (Chunky broiler)
Procedure: A third test was performed by giving chickens for meat (broilers) a feed having powdery acetylcysteine added thereto.
300 (150 males and 150 females) broiler-dedicated breed day-old chicks (broilers available from Nippon Chunky Co., Ltd.) are fed. As the chicks, about 350 birds (175 males and 175 females) were introduced, and individuals not having any abnormal health condition and having a close weight were selected and used in the test.
The nutritional value of this basic feed is adjusted so as to be lower than the index.
The concentration of acetylcysteine added to the basic feed was determined based on the aimed results for Chunky broiler (2014).
Three groups were assigned to the control zone and the test zone, respectively, and the chicks were raised until 49-day old.
Each flock of tested chicks was raised in an electrically heated windowless chicken house of a forced ventilation (air exhaust) type.
For vaccination, chicks vaccinated with Marek's vaccine and live fowl pox vaccine when born were introduced, and were additionally vaccinated with NB live vaccine at 4-day old and 15-day old and with live fowl pox vaccine at 21-day old.
The feed and drinking water were continuously given.

[4] = 1 mg/day/Kg in drinking water, 166 days

NCC(=O)O [glycine]
weights of chickens of 7-day old vs without giving glycine (chickens for meat): smaller

CC(=O)N[C@@H](CS)C(=O)O [acetylcysteine, N-acetyl-L-cysteine]
decrease of average egg weight in test zone compared to control zone (egg-laying hens [1]; [4]): 2.16% | increase of average egg production rate in test zone compared to control zone (egg-laying hens [1]; [4]): 1.13% | increase of number of eggs laid in test zone compared to control zone (egg-laying hens [1]; [4]): 1.67% | proportion of the feed conversion rate in the test zone to that in the control zone (egg-laying hens [1]; [4]): 96.50% and 96.48% | reduction (improvement) of feed conversion rate in test zone compared to control zone (egg-laying hens [1]; [4]): 3.52% | reduction of number of deaths and cullings in test zone compared to control zone (egg-laying hens [1]; [4]): 20% | feed conversion rate in the test zone (egg-laying hens [1]; 1 mg/day/Kg in drinking water, given one time for 5 days, 166 days, control zone 1.99): 1.92 | reduction of feed demand (egg-laying hens [1]; as shown in FIG. 3, test zone vs control zone): 4.67% | improvement of feed conversion rate in test zone vs control zone in consideration of the preparative test (egg-laying hens [1]; corrected for 1.59% increase in 20-day preparative test without agent): 5.11% | surface roughness of egg shells, visual observation, vs eggs of control zone (egg-laying hens [1]; eggs collected in the test zone): finer and smoother surfaces | improvement in feed conversion rate in the test of the old hens in the chicken farm (egg-laying hens [1]; old hens, chicken farm): more than 5% | calcium in solid products of feces washed with water (egg-laying hens [1]; test zone, calcium was found in the control zone): no calcium was found | weight at the end of the test relative to control zone (egg-laying hens [2]; 5-fold zone, 0.0072% acetylcysteine in feed, 4 weeks): approximately equal | egg production rate (egg-laying hens [2]; 5-fold zone, 0.0072% in feed): 98.6% | feed conversion rate, higher than that in the control zone (egg-laying hens [2]; feed contained 0.2% DL-methionine, zone not specified): 4.43% | weight at the end of the test, larger than that in the control zone (egg-laying hens [2]; standard zone, 0.0014% acetylcysteine in feed, 4 weeks): 0.5% | egg production rate (egg-laying hens [2]; standard zone, 0.0014% in feed): 99.2% | feed conversion rate in the test zone relative to that in the control zone ([3]; 1 mg/Kg daily in feed, until 49-day old): 100.55% | feed efficiency in the test zone relative to that in the control zone ([3]; Weeks 4 to 7 of the second period): 101.54% | number of deaths and cullings ([3]; test zone, control zone 3 birds, Week 6 (sudden death syndrome)): 1 bird | growth rate ([3]; test zone, control zone 98%): 99.3% | feed efficiency in the test zone relative to that in the control zone ([3]; three weeks of the first period): 99.32% | feed efficiency in the test zone relative to that in the control zone ([3]; whole period, until 49-day old): 100.93%
